Data on 1 compound can be found in patent US20240269238A1, “Therapeutic Regimens and Methods for Reducing Body Weight in a Subject with Fatty Liver Disease using a GLP-1R and GCGR Agonist” (Spitfire Pharma LLC, priority 2022, published 2024).

The test system of this experiment is alanine aminotransferase (ALT) and corrected T1 (cT1). Nature of the experiment: Phase 1b 24-week NAFLD study (Example 3): liver inflammation by ALT levels and cT1 imaging. It counts as in vivo, human. Particulars: all doses, week 24. From the text: Provided herein is disclosure of a 12-week extension study of the study provided in Example 1, providing a 24-week a Phase 1b, randomized, double-blind, placebo-controlled study to assess the effects of pemvidutide (also termed herein as ALT-801), the safety of pemvidutide and effects on weight loss, hepatic fat fraction, anthropometric parameters, lipid metabolism, as well as inflammatory, fibrosis and other markers in diabetic and non-diabetic (type 2 diabetes) overweight and obese (BMI≥28.0 kg/m^2) subjects with NAFLD (defined as liver fat content (LFC) by MRI-PDFF ≥10%; absence of significant fibrosis, defined as FibroScan® LSM ≤10 kPa), alanine aminotransferase (ALT) and aspartate aminotransferase (AST) laboratory values of ≤75 IU/L and HbA1c <9.5. Men and women aged 18-65 years were studied. […]
The primary endpoint of this study was a reduction in liver fat content (LFC) by MRI-PDFF at Week 24 compared to Week 0 (zero). […] Adverse events (AEs), including serious and severe AEs, AEs leading to discontinuation, GI tolerability, vital signs, and glycemic control including fasting glucose and HbA1c levels were also measured. […]

On to `CC[C@H](C)[C@H](NC(=O)[C@H](Cc1ccccc1)NC(=O)[C@H](CCC(=O)O)NC(=O)[C@@H]1CCCCNC(=O)CC[C@H](NC(=O)[C@H](CC(=O)O)NC(=O)[C@H](CC(C)C)NC(=O)[C@H](Cc2ccc(O)cc2)NC(=O)[C@H](CCCCN)NC(=O)[C@H](CO)NC(=O)[C@H](Cc2ccc(O)cc2)NC(=O)[C@H](CC(=O)O)NC(=O)[C@H](CO)NC(=O)[C@@H](NC(=O)[C@H](Cc2ccccc2)NC(=O)[C@@H](NC(=O)CNC(=O)[C@H](CCC(N)=O)NC(=O)C(C)(C)NC(=O)[C@@H](N)Cc2c[nH]cn2)[C@@H](C)O)[C@H](C)O)C(=O)N[C@@H](CCCCNC(=O)C2O[C@@H](OCCCCCCCCCCCCCCCCCC(=O)O)C(O)C(O)[C@@H]2O)C(=O)N[C@@H](C)C(=O)N[C@@H](C)C(=O)N1)C(=O)N[C@@H](CCC(N)=O)C(=O)N[C@@H](Cc1c[nH]c2ccccc12)C(=O)N[C@@H](CC(C)C)C(=O)N[C@@H](CC(C)C)C(=O)N[C@@H](CCC(N)=O)C(=O)N[C@H](C(N)=O)[C@@H](C)O` (some centres unmarked) [ALT-801, Pemvidutide], for which the ALT levels result is recorded as “robust reduction of ALT levels” and the “cT1 response (80 ms reduction vs baseline)” value is recorded as “high rates of cT1 response”.
